Patent US8722580B2, “Agent for inhibiting cytokinin signaling” (Sumitomo Chemical Company, Limited, priority 2006, dated 2014)

Tests used:
Arabidopsis thaliana [1] = assay: Root growth-promoting activity test (Example 9); type: in vivo; details: main root length vs control section, 22° C., 10 days
Protocol: (§1) Enshi standard medium having the following composition (see Table 10) was prepared. To cluster tubes was dispensed each 4 μl of a solution of a chemical substance in DMSO to a final concentration of 0.001 ppm to 10 ppm, and then, was dispensed each 600 μl of the sterilized Enshi standard medium. Then the resulting solution was well mixed. In each of the cluster tubes, 10-20 seeds of Arabidopsis thaliana were sown, and cultured at 22° C. for 10 days in the light. Then, the length of main roots (average main roots) generated from the seeds of Arabidopsis thaliana was measured. An average of eight repeats was determined, and a root growth rate was determined according to the following equation.
(§2) Root growth rate (%)=(Average main root length in chemical substance-treated section)/(Average main root length in control section)×100

Arabidopsis thaliana [2] = assay: Root growth-promoting activity test (Example 22); type: in vivo; details: main root length vs control section, 22° C., 10 days
Protocol: as §1, with “18)” for “10)”
as §2
Enshi standard medium determined having the following composition (Table 18) was prepared. A DMSO solution of a chemical substance was dispensed by 4 μl to cluster tubes to a final concentration of 0.001 ppm to 10 ppm and the sterilized Enshi standard medium was dispensed by 600 μl and then the resulting solution was well mixed. 10-20 seeds of A. thaliana per cluster tube were sown in the cluster tubes. After culture at 22° C. for 10 days in bright light, the length of main roots (average main roots) took from seeds of A. thaliana was measured. An average of eight repeats was determined and the root growth rate was determined.
Root growth rate (%)=(Average main root length of chemical substance-treated section)/(Average main root length of control section)×100

cytokinin receptor CRE1 = target: T1, cytokinin receptor CRE1 (Arabidopsis thaliana, UniProt Q9C5U0, S567G/T1018A); assay: Inhibition of intracellular signaling from plant-derived cytokinin receptor, growth of transformed yeast cell TM182-CRE1; type: cell-based; details: trans-zeatin 0.6 ppm, chemical substance 2 ppm; for Relative growth rate (%) in test section of test substance to control section, Transformed cell TM182-CRE1: 30° C., 24 hours, turbidity OD 600; for Activity (%) of test substance for inhibiting intracellular signaling from plant-derived cytokinin receptor of cell: = 100 − relative growth rate of TM182-CRE1
T1 construct: expressed in transfected cells; host or cells: Saccharomyces cerevisiae TM182 (sln1Δ) transformed with p415CYC-CRE1
T1 sequence (Q9C5U0 24-1080 S567G/T1018A): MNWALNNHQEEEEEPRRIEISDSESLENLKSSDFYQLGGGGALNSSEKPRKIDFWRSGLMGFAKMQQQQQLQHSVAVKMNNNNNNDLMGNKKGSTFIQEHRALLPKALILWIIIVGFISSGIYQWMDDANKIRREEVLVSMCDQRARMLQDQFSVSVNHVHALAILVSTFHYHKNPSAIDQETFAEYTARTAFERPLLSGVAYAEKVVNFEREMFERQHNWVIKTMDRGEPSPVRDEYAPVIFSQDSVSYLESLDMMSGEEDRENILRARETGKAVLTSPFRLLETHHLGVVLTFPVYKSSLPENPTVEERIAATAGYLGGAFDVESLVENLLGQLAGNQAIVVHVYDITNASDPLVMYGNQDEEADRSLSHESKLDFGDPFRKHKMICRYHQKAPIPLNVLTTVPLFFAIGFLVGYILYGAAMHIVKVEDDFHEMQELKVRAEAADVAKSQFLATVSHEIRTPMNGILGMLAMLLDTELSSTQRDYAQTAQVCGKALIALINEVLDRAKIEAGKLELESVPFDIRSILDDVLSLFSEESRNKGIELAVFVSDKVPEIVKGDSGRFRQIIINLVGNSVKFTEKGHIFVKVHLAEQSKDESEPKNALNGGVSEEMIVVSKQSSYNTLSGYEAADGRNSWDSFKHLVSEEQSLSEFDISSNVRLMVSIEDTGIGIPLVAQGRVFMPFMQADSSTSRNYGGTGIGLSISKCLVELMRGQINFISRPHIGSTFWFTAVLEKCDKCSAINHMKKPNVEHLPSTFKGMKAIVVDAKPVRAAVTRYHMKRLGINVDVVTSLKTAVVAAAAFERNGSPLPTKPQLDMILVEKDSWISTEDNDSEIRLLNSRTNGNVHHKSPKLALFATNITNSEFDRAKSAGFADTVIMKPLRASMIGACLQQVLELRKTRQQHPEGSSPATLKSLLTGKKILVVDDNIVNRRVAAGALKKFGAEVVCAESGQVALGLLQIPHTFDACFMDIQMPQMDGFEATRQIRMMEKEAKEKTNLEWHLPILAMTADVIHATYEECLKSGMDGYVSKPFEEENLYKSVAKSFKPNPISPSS
Protocol: (§3) The transformed cell TM182-CRE1 and the transformed cell TM182-p415CYC1 obtained in Example 6 were each inoculated in 10 ml of a DOLU+Gal medium, and preincubated at 30° C. for 18 hours to obtain a preincubation liquid for each of the transformed cells. The preincubation liquid was diluted with a DOLU+Glu medium for the transformed cell TM182-CRE1 or with a DOLU+Gal medium for the transformed cell TM182-p415CYC1 until OD600=0.1 was reached, to obtain a preincubation dilution for each of the transformed cells.
(§4) To each well of a 96-well plate was added 1 μl of a 200 ppm solution of a test substance in dimethyl sulfoxide (DMSO) to prepare an Assay plate. At the same time, as controls, only 1 μl of DMSO was added to a part of wells. An assay plate for the transformed cell TM182-CRE1 and an assay plate for the transformed cell TM182-p415CYC1 were prepared.
(§5) A 10,000 ppm solution of trans-zeatin (cytokinin) in DMSO was 50-fold diluted with a DOLU+Gul medium to 200 ppm. The 200 ppm trans-zeatin solution was added in an amount of 3/1,000 volume to each of the above-described preincubation dilution to prepare each preincubation dilution containing trans-zeatin at 0.6 ppm. The 0.6 ppm preincubation dilution was added in an amount of 100 μl to each wells of the assay plate for each transformed cell. The plates were incubated at 30° C. for 24 hours. Then, turbidity (OD 600) of each well was measured by using a plate reader. The activity of the test substance for inhibiting intracellular signaling from a plant-derived cytokinin receptor of a cell was tested by comparing the measured turbidity with the turbidity of the control well.
(§6) (Relative growth rate in test section to control section) [%]=[(Turbidity in test section)−(Turbidity in blank)]/[(Turbidity in control section)−(Turbidity in blank)]×100 (Activity of inhibiting intracellular signaling from plant-derived cytokinin receptor of cell) [%]=100−(Relative growth rate in test section to control section)
(§7) In all cases, the existing concentration of trans-zeatin was adjusted to 0.6 ppm and the existing concentration of a chemical substance was adjusted to 2 ppm.
(§8) In all cases, the existing concentration of trans-zeatin was adjusted to 0.6 ppm and the existing concentration of a chemical substance was adjusted to 2 […].

[3] = system: transformed cell TM182-p415CYC1; assay: Control growth test with transformed yeast cell TM182-p415CYC1 (toxicity to yeast); type: cell-based; details: trans-zeatin 0.6 ppm; chemical substance 2 ppm; 30° C., 24 hours; turbidity OD 600
Protocol: as §3, §4, §5, §6, §7, §8

[4] = test final concentration 2.5 ppm (concentration with highest root growth rate)
[5] = test final concentration 2.5 ppm (highest root growth rate)
[6] = test final concentration 0.625 ppm (concentration with highest root growth rate)
[7] = test final concentration 0.625 ppm (highest root growth rate)
[8] = test final concentration 1.25 ppm (concentration with highest root growth rate)
[9] = test final concentration 1.25 ppm (highest root growth rate)
[10] = test final concentration 10 ppm (concentration with highest root growth rate)
[11] = test final concentration 10 ppm (highest root growth rate)
[12] = test final concentration 5 ppm (concentration with highest root growth rate)
[13] = test final concentration 5 ppm (highest root growth rate)

Row | Structure (SMILES) | Relative growth rate (%) in test section of test substance to control section, Transformed cell TM182-CRE1 (cytokinin receptor CRE1) [%] | Activity (%) of test substance for inhibiting intracellular signaling from plant-derived cytokinin receptor of cell (cytokinin receptor CRE1) [%] | Relative growth rate (%) in test section of test substance to control section, Transformed cell TM182-p415CYC1 [3] [%] | Root growth-promoting activity (root growth rate) (Arabidopsis thaliana [1]; [10]) [%] | Root growth-promoting activity (root growth rate) (Arabidopsis thaliana [2]; [11]) [%] | further results
1 | OCCCNc1nc(-c2ccccc2)c2c(Cl)cccc2n1 [Ic1-1] |  |  |  |  |  | Root growth-promoting activity (root growth rate) (Arabidopsis thaliana [1]; [4]): 150.9%; Root growth-promoting activity (root growth rate) (Arabidopsis thaliana [2]; [5]): 150.9%
2 | OCCCCCNc1nc(-c2ccccc2)c2cc(Cl)ccc2n1 [Ic3-5] | 3.5 | 96.5 | 115.4 |  |  | Root growth-promoting activity (root growth rate) (Arabidopsis thaliana [1]; [6]): 134.0%; Root growth-promoting activity (root growth rate) (Arabidopsis thaliana [2]; [7]): 134.0%
3 | COCCNc1nc(-c2ccccc2)c2cc(Cl)ccc2n1 [Ic3-7] | 2.8 | 97.2 | 104.1 |  |  | Root growth-promoting activity (root growth rate) (Arabidopsis thaliana [1]; [8]): 142.5%; Root growth-promoting activity (root growth rate) (Arabidopsis thaliana [2]; [9]): 142.5%
4 | CCCNc1nc(-c2ccccc2)c2cc(Cl)ccc2n1 [Ic3-8] |  |  |  |  |  | Root growth-promoting activity (root growth rate) (Arabidopsis thaliana [1]; [8]): 136.4%; Root growth-promoting activity (root growth rate) (Arabidopsis thaliana [2]; [9]): 136.4%
5 | CC(C)CCNc1nc(-c2ccccc2)c2cc(Cl)ccc2n1 [Ic3-10] |  |  |  | 120.6 | 120.6 | 
6 | OCCCCCCNc1nc(-c2ccccc2)c2cc(Cl)ccc2n1 [Ic3-11] | 3.9 | 96.1 | 84.6 |  |  | Root growth-promoting activity (root growth rate) (Arabidopsis thaliana [1]; [8]): 128.2%; Root growth-promoting activity (root growth rate) (Arabidopsis thaliana [2]; [9]): 128.2%
7 | CC(CO)CCNc1nc(-c2ccccc2)c2cc(Cl)ccc2n1 (stereo not drawn) [Ic3-12] | 5.6 | 94.4 | 90.9 |  |  | Root growth-promoting activity (root growth rate) (Arabidopsis thaliana [1]; [8]): 128.9%; Root growth-promoting activity (root growth rate) (Arabidopsis thaliana [2]; [9]): 128.9%
8 | CC(C)=CCNc1nc(-c2ccccc2)c2cc(Cl)ccc2n1 [Ic3-17] |  |  |  | 121.3 | 121.3 | 
9 | CC(=CCNc1nc(-c2ccccc2)c2cc(Cl)ccc2n1)CO [Ic3-18] | 4.0 | 96.0 | 105.3 |  |  | Root growth-promoting activity (root growth rate) (Arabidopsis thaliana [1]; [4]): 139.5%; Root growth-promoting activity (root growth rate) (Arabidopsis thaliana [2]; [5]): 139.5%
10 | CCNc1nc(-c2ccccc2)c2cc(Cl)ccc2n1 [Ic3-24] | 2.1 | 97.9 | 112.5 |  |  | Root growth-promoting activity (root growth rate) (Arabidopsis thaliana [1]; [8]): 122.8%; Root growth-promoting activity (root growth rate) (Arabidopsis thaliana [2]; [9]): 122.8%
11 | CC(C)Nc1nc(-c2ccccc2)c2cc(Cl)ccc2n1 [Ic3-28] |  |  |  | 120.4 | 120.4 | 
12 | C=CCNc1nc(-c2ccccc2)c2cc(Cl)ccc2n1 [Ic3-29] | 1.6 | 98.4 | 92.7 | 122.4 | 122.4 | 
13 | Clc1ccc2nc(NCC3CCCO3)nc(-c3ccccc3)c2c1 (stereo not drawn) [Ic3-37] | 3.5 | 96.5 | 114.2 |  |  | Root growth-promoting activity (root growth rate) (Arabidopsis thaliana [1]; [12]): 138.5%; Root growth-promoting activity (root growth rate) (Arabidopsis thaliana [2]; [13]): 138.5%
14 | COCCCNc1nc(-c2ccccc2)c2cc(Cl)ccc2n1 [Ic3-38] | 1.2 | 98.8 | 99.4 |  |  | Root growth-promoting activity (root growth rate) (Arabidopsis thaliana [1]; [12]): 141.9%; Root growth-promoting activity (root growth rate) (Arabidopsis thaliana [2]; [13]): 141.9%
15 | CC(O)CNc1nc(-c2ccccc2)c2cc(Cl)ccc2n1 (stereo not drawn) [Ic3-39] | −1.3 | 101.3 | 108.1 | 169.0 | 169.0 | 
16 | OCCOCCNc1nc(-c2ccccc2)c2cc(Cl)ccc2n1 [Ic3-40] | 0.7 | 99.3 | 123.4 |  |  | Root growth-promoting activity (root growth rate) (Arabidopsis thaliana [1]; [6]): 125.8%; Root growth-promoting activity (root growth rate) (Arabidopsis thaliana [2]; [7]): 125.8%
17 | OCC(O)CNc1nc(-c2ccccc2)c2cc(Cl)ccc2n1 (stereo not drawn) [Ic3-41] | 8.8 | 91.2 | 123.3 |  |  | Root growth-promoting activity (root growth rate) (Arabidopsis thaliana [1]; [12]): 134.5%; Root growth-promoting activity (root growth rate) (Arabidopsis thaliana [2]; [13]): 134.5%
18 | OCCCNc1nc(-c2ccccc2)c2cc(C(F)(F)F)ccc2n1 [Ic6-2] |  |  |  |  |  | Root growth-promoting activity (root growth rate) (Arabidopsis thaliana [1]; [4]): 155.9%; Root growth-promoting activity (root growth rate) (Arabidopsis thaliana [2]; [5]): 155.9%
19 | N#Cc1ccc2nc(NCCCO)nc(-c3ccccc3)c2c1 [Ic9-1] |  |  |  | 141.5 | 141.5 | 
20 | OCCCNc1nc(-c2ccccc2)c2ccc(Cl)cc2n1 [Ic10-1] |  |  |  | 163.6 | 163.6 | 
21 | Clc1cc(Cl)c2nc(NCc3ccco3)nc(-c3ccccc3)c2c1 [Ic12-3] |  |  |  |  |  | Root growth-promoting activity (root growth rate) (Arabidopsis thaliana [1]; [4]): 138.8%; Root growth-promoting activity (root growth rate) (Arabidopsis thaliana [2]; [5]): 138.8%
